Source: patent publication US20050222110A1, “Use of loteprednol etabonate for the treatment of dry eye” (priority 2004, published 2005)

How the values were obtained:
[1] = Clinical trial in KCS patients: adverse events and toxicity; type: in vivo, human; conditions: following one month of therapy
Description: (§1) A randomized, double-masked, placebo-controlled, multicenter, pilot study was conducted in compliance with ICH Good Clinical Practice and the Declaration of Helsinki. Approval was obtained from an Institutional Review Board for each study site before initiating the study. Written informed consent was obtained from all patients before any study specific investigations were performed.
(§2) Patients were randomly assigned to receive either Lotemax® Bausch and Lomb Inc. Rochester N.Y., or placebo four times a day. Lotemax® (loteprednol etabonate ophthalmic suspension, 0.5%) was supplied in 7.5 mL (5.0 mL fill) white, low density polyethylene dropper bottles with white caps for masking purposes. Placebo (the vehicle of Lotemax®) was supplied in identical bottles. Preservative Free Moisture Eyes™ Lubricant Eye Drops (Bausch & Lomb) were supplied in unit dose containers.
(§3) Safety was assessed by fundoscopy, lens examination and biomicroscopy, by tests of visual acuity and intraocular pressure, and by monitoring adverse events and changes in symptomatology. Adverse events were evaluated by the investigator as to severity (mild, moderate, severe) and relationship of the event to the study drug (probable, possible, unlikely, or unknown).

[2] = system: keratoconjunctivitis sicca (KCS) in patients with delayed tear clearance; test: Clinical trial in KCS patients: corneal fluorescein staining score; type: in vivo, human; conditions: subset with more severe clinical inflammatory signs at entry
Description: as §1
In addition, they were required to meet the following criteria in at least one eye: • 1. delayed tear clearance defined by a standardized visual scale score ≧3^15 • 2. at least one symptom >30 mm on the visual analog scale (VAS) • 3. composite corneal staining score >3
Patients were randomly assigned to receive either Lotemax® Bausch and Lomb Inc. Rochester N.Y., or placebo four times a day. […]
Patients attended for 5 visits. […] The fluorescence was graded between 0 and 6 using a standard color comparison scale. […] The corneal staining was evaluated 5 minutes after the instillation of the 2% fluorescein, viewing the cornea through a slit lamp with blue light and a No. 11 Wratten filter (See Table 2 below).
As is traditional for studies of this kind, two primary variables were defined representing subjective evaluation by the patient and objective evaluation based on the clinical examination findings. […] Each area was scored according to the corneal staining grading scale (Table 2 above). […]

[3] = 0.2%; up to 3 years; 265 patients; allergic conjunctivitis; cited from earlier work
[4] = Clinical trial in KCS patients: intraocular pressure; type: in vivo, human; conditions: one month of therapy; mean IOP and individual patients
Description: as §1, §2, §3

SMILES: CCOC(=O)O[C@]1(C(=O)OCCl)CC[C@H]2[C@@H]3CCC4=CC(=O)C=C[C@]4(C)[C@H]3[C@@H](O)C[C@@]21C [loteprednol, (11β,17α),-17-[(Ethoxycarbonyl)oxy]-11-hydroxy-3-oxoandrosta-1,4-diene-17-carboxylic acid chloromethyl ester]
- Toxicity [1]: complete lack of toxicity
- Central corneal fluorescein staining, improvement ([2]; four weeks): ~20%
- Central corneal fluorescein staining, improvement ([2]; two weeks): approximately 30%
- Cataract formation [3]: no cataract formation was observed
- Mean intraocular pressure compared to pretreatment values [3]: not different from baseline
- Elevation of IOP [4]: neither elevation of the mean IOP nor any individual with a clinically important elevation of the IOP
